Source: the supplement of paper PMC11208160

Assay: recombinant barcode read abundance after kanamycin selection (control-corrected) (log10(CPM+1)); higher = more efficient recombination; sequences stand for … in AGTGCAGAGAAAATCGGCCAGTTTTCTCTGCCTGCAGTCCGCATGCCGT…AGATTTATGCAGCGGACTGCCTTTCTCCCAAAGTGATAAACCGGACAGTATCATGGACCGGTTTTCCCGGTAATCCGTATTTGCAAGGTTGGTTTCACT; site = the 11-nt target
How it was run: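 Pooled E. coli screen pairing targets with IS621 bridge RNA target-binding loops. Each oligo (promoter, target, barcode, J23119-driven first 104 bridge RNA bases) was Gibson-cloned into a vector with the remaining 73 bp and T7-inducible recombinase, then co-electroporated with a donor plasmid. Two replicates each were plated on chloramphenicol/ampicillin LB agar (control) or chloramphenicol/ampicillin/kanamycin with 0.1 mM IPTG. Recombination efficiency is recombinant-junction barcode counts as CPM, averaged, control-corrected, reported as log10(CPM+1).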
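Further: IS621 recombinase and bridge RNA in Escherichia coli cells.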

Sequence | recombinant barcode read abundance (log10)
GAGCGCTCTTGGGTTCTAACCTGTTGCTT (site GAGCGCTCTAA) | 1.22
GAGCGCTCTTGGGTTCTAACCTGTTGCTT (site GAGCGCTCTCA) | 0.0723
GAGCGCTCTTGGGTTCTAACCTGTTGCTT (site GAGCGCTCTGA) | 0.088
GAGCGCTCTTGGGTTCTAACCTGTTGCTT (site GAGCGCTCTTA) | 0.269
GAGCGGACTTGGGTTCTAACCTGTTGCCT (site GAGCAGACTAG) | 0.698
GAGCGGACTTGGGTTCTAACCTGTTGCCT (site GAGCCGACTAG) | 0.388
GAGCGGACTTGGGTTCTAACCTGTTGCCT (site GAGCGGACTAG) | 1.68
GAGCGGACTTGGGTTCTAACCTGTTGCCT (site GAGCTGACTAG) | 0.129
GAGCTACCTTGGGTTCTAACCTGTTGCCA (site GAGCTACCTAG) | 0.796
GAGCTACCTTGGGTTCTAACCTGTTGCCA (site GAGCTACCTCG) | 0.213
GAGCTACCTTGGGTTCTAACCTGTTGCCA (site GAGCTACCTGG) | 0.13
GAGCTACCTTGGGTTCTAACCTGTTGCCA (site GAGCTACCTTG) | 1.11
GAGCTACCTTGGGTTCTAACCTGTTGCCG (site GAGCTACCTAG) | 0.837
GAGCTACCTTGGGTTCTAACCTGTTGCCG (site GAGCTACCTCG) | 1.11
GAGCTACCTTGGGTTCTAACCTGTTGCCG (site GAGCTACCTGG) | 0.0124
GAGCTACCTTGGGTTCTAACCTGTTGCCG (site GAGCTACCTTG) | 0.214
GAGCTCACTTGGGTTCTAACCTGTTGCCA (site GAGCACCCTTG) | 0.0579
GAGCTCACTTGGGTTCTAACCTGTTGCCA (site GAGCTCACTTG) | 0.514
GAGCTGACTTGGGTTCTAACCTGTTGCCT (site GAGCAGACTAG) | 0.182
GAGCTGACTTGGGTTCTAACCTGTTGCCT (site GAGCCGACTAG) | 0.488
GAGCTGACTTGGGTTCTAACCTGTTGCCT (site GAGCGGACTAG) | 0.0812
GAGCTGACTTGGGTTCTAACCTGTTGCCT (site GAGCTGACTAG) | 1.49

Sequence | recombinant barcode read abundance (log10)
GAGCTTGCTTGGGTTCTAACCTGTTGCGA (site GAGCTTGCTTC) | 0.949
GAGCTTGCTTGGGTTCTAACCTGTTGCGA (site TGCGGGTCTAG) | 0.122
GAGGACTCTTGGGTTCTAACCTGTTGCCT (site GAGGACTCTAG) | 3
GAGGACTCTTGGGTTCTAACCTGTTGCCT (site GAGGACTCTCG) | 0.0247
GAGGACTCTTGGGTTCTAACCTGTTGCCT (site GAGGACTCTGG) | 1.29
GAGGACTCTTGGGTTCTAACCTGTTGCCT (site GAGGACTCTTG) | 0.0974
GAGGCTCCTTGGGTTCTAACCTGTTGCGT (site GAAGCTCCTAC) | 1.54
GAGGCTCCTTGGGTTCTAACCTGTTGCGT (site GAGGCTCCTAC) | 2.97
GAGGGCCCTTGGGTTCTAACCTGTTGCAG (site GAGGGCCCTCA) | 2.07
GAGGGCCCTTGGGTTCTAACCTGTTGCAG (site GAGGGCCCTCC) | 0.926
GAGGGCCCTTGGGTTCTAACCTGTTGCAG (site GAGGGCCCTCG) | 1.4
GAGGGCCCTTGGGTTCTAACCTGTTGCAG (site GAGGGCCCTCT) | 2.88
GAGGGCCCTTGGGTTCTAACCTGTTGCCT (site AAGGGCCCTAG) | 1.38
GAGGGCCCTTGGGTTCTAACCTGTTGCCT (site CAGGGCCCTAG) | 1.04
GAGGGCCCTTGGGTTCTAACCTGTTGCCT (site GAGGGCCCTAG) | 2.41
GAGGGCCCTTGGGTTCTAACCTGTTGCCT (site TAGGGCCCTAG) | 1.04
GAGGGTCCTTGGGTTCTAACCTGTTGCCT (site GAGGGTCCTAA) | 0.451
GAGGGTCCTTGGGTTCTAACCTGTTGCCT (site GAGGGTCCTAC) | 0.133
GAGGGTCCTTGGGTTCTAACCTGTTGCCT (site GAGGGTCCTAG) | 2.56
GAGGGTCCTTGGGTTCTAACCTGTTGCCT (site GAGGGTCCTAT) | 0.457
GAGGGTCCTTGGGTTCTAACCTGTTGCTT (site GAGGGTCCTAA) | 2
GAGGGTCCTTGGGTTCTAACCTGTTGCTT (site GAGGGTCCTAC) | 0.598

Sequence | recombinant barcode read abundance (log10)
GAGGGTCCTTGGGTTCTAACCTGTTGCTT (site GAGGGTCCTAG) | 1.72
GAGGGTCCTTGGGTTCTAACCTGTTGCTT (site GAGGGTCCTAT) | 1.83
GAGGGTGCTTGGGTTCTAACCTGTTGCCT (site GAGGGTGCTAG) | 1.89
GAGGGTGCTTGGGTTCTAACCTGTTGCCT (site GAGGGTTCTAT) | 0.121
GAGGTATCTTGGGTTCTAACCTGTTGCCA (site GAGGTATCTAC) | 0.038
GAGGTATCTTGGGTTCTAACCTGTTGCCA (site GAGGTATCTTG) | 1.12
GAGGTATCTTGGGTTCTAACCTGTTGCTA (site GAGGTATCTAA) | 0.201
GAGGTATCTTGGGTTCTAACCTGTTGCTA (site GAGGTATCTTA) | 0.345
GAGGTGCCTTGGGTTCTAACCTGTTGCTG (site CTAACTACTAC) | 0.0482
GAGGTGCCTTGGGTTCTAACCTGTTGCTG (site GAGGTGCCTCA) | 2
GAGTCGCCTTGGGTTCTAACCTGTTGCCT (site GAGTCGCCTAG) | 0.263
GAGTCGCCTTGGGTTCTAACCTGTTGCCT (site GAGTCGTCTAG) | 0.118
GAGTCGCCTTGGGTTCTAACCTGTTGCGG (site GAGTAGCCTCC) | 0.0862
GAGTCGCCTTGGGTTCTAACCTGTTGCGG (site GAGTCGCCTCC) | 1.22
GAGTCGCCTTGGGTTCTAACCTGTTGCGG (site GAGTGGCCTCC) | 0.188
GAGTCGCCTTGGGTTCTAACCTGTTGCGG (site GAGTTGCCTCC) | 0.0886
GAGTCGGCTTGGGTTCTAACCTGTTGCTT (site GAGACGGCTAA) | 0.23
GAGTCGGCTTGGGTTCTAACCTGTTGCTT (site GAGCCGGCTAA) | 0
GAGTCGGCTTGGGTTCTAACCTGTTGCTT (site GAGGCGGCTAA) | 0.0495
GAGTCGGCTTGGGTTCTAACCTGTTGCTT (site GAGTCGGCTAA) | 0.778
GAGTCTACTTGGGTTCTAACCTGTTGCAG (site GAGTCTACTCG) | 0.339
GAGTCTACTTGGGTTCTAACCTGTTGCAG (site GAGTCTACTCT) | 0.494

Sequence | recombinant barcode read abundance (log10)
GAGTCTACTTGGGTTCTAACCTGTTGCTT (site GAATCTACTAA) | 0.0356
GAGTCTACTTGGGTTCTAACCTGTTGCTT (site GACTCTACTAA) | 0.813
GAGTCTACTTGGGTTCTAACCTGTTGCTT (site GAGTCTACTAA) | 0
GAGTCTACTTGGGTTCTAACCTGTTGCTT (site GATTCTACTAA) | 0.0603
GAGTCTTCTTGGGTTCTAACCTGTTGCCA (site CTACAGGCTGT) | 0.281
GAGTCTTCTTGGGTTCTAACCTGTTGCCA (site GAGTCTTCTTG) | 0.147
GAGTCTTCTTGGGTTCTAACCTGTTGCTA (site GAGTACTCTTA) | 0.0434
GAGTCTTCTTGGGTTCTAACCTGTTGCTA (site GAGTCTTCTTA) | 0.0462
GAGTGCTCTTGGGTTCTAACCTGTTGCAG (site GAGCGCTCTCT) | 0.676
GAGTGCTCTTGGGTTCTAACCTGTTGCAG (site GAGTGCTCTCT) | 1.26
GAGTGGACTTGGGTTCTAACCTGTTGCGT (site GACCGGACTAC) | 0.349
GAGTGGACTTGGGTTCTAACCTGTTGCGT (site GAGTGGACTAC) | 2.7
GAGTGTCCTTGGGTTCTAACCTGTTGCGA (site GAGTGTCCTTC) | 1.87
GAGTGTCCTTGGGTTCTAACCTGTTGCGA (site GTGTCTCCTTC) | 0.0874
GAGTTCACTTGGGTTCTAACCTGTTGCAG (site AGTCGTTCTAG) | 0.141
GAGTTCACTTGGGTTCTAACCTGTTGCAG (site GAGTTCACTCT) | 1.79
GAGTTGCCTTGGGTTCTAACCTGTTGCCT (site GAGTTGCCTAG) | 1.05
GAGTTGCCTTGGGTTCTAACCTGTTGCCT (site GCGTTGCCTAG) | 0.107
GAGTTGCCTTGGGTTCTAACCTGTTGCCT (site GGGTTGCCTAG) | 0.0448
GAGTTGCCTTGGGTTCTAACCTGTTGCCT (site GTGTTGCCTAG) | 1.59
